For this experiment, the target named is tau K18 (Homo sapiens, UniProt P10636). Description: intrinsic fisetin fluorescence titration. It counts as binding.

The structures appear in SMILES notation.

Chain of tau K18 (P10636 561-689): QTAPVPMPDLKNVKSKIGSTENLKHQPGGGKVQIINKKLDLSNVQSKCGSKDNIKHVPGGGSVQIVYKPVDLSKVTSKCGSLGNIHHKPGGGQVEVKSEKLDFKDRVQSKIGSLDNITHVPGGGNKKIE

The molecule `O=c1c(O)c(-c2ccc(O)c(O)c2)oc2cc(O)ccc12` [fisetin] gave an equilibrium dissociation constant (Kd) of 22.6 ± 1.81 µM.

As a reminder, the Kd is the equilibrium constant for the complex coming apart. The low end stands for a tighter complex, the high end for a looser complex.
